Assay results reported in patent US8541442B2, “Indole derivatives as anticancer agents” (Janssen Pharmaceutica N.V., priority 2009, dated 2013).

What was measured:
[1] = system: A2780 ovarian cancer cells; experiment: Alamar Blue cell proliferation assay, A2780; type: cell-based, human; conditions: 4-day incubation; for IC50: Homo sapiens, A2780, 96 h, read-out: A2780 cell proliferation inhibition pIC50 (converted)
Description: The human A2780 ovarian cancer cells were a kind gift from Dr. T. C. Hamilton (Fox Chase Cancer Centre, Pennsylvania, U.S.A.). The cells were cultured in RPMI 1640 medium supplemented with 2 mM L-Glutamine, 50 μg/ml gentamicin and 10% fetal calf serum.
Potassium Phosphate Buffer 0.1 M (PPB) was made as follows: 2.72 gram KH2PO4 and 13.86 gram K2HPO4 were dissolved in 500 ml milli-Q H2O, the pH was adjusted to pH 7.4 and the volume was brought to 1 liter with milli-Q H2O; the buffer was filter sterilised and stored at room temperature. Resazurin stock solution (PPB-A) was prepared fresh by dissolving 45 mg resazurin in 15 ml PBS. 30 mM potassium ferricyanide (PPB-B) was prepared by dissolving 0.987 gram potassium ferricyanide in 100 ml PPB. 30 mM potassium ferrocyanide (PPB-C) was prepared by dissolving 1.266 gram potassium ferrocyanide in 100 ml PPB.
Mixture of PPB-A, PPB-B and PPB-C was prepared by mixing equal volumes of the respective solutions. Resazurin work solution (herein termed “Alamar Blue” solution) was prepared by diluting said mixture 20×(vol/vol) in PPB and filter sterilising; the Alamar Blue solution could be kept at 4° C. for a maximum of 2 weeks.
(§1) For experiments in 384 wells plates the cells were seeded at a density of 5×10^3 cells/ml in Falcon 384-well culture plates (Life Technologies, Merelbeke, Belgium), black with clear bottom, in 45 μl culture medium. Cells were allowed to adhere to plastic for 24 hr. The tested compound was pre-diluted (1/50 in culture medium) and 5 μl pre-diluted compound was added to the wells. Following 4-day incubation, 10 μl of the Alamar Blue solution was added to each well and the cells were further incubated for 5 hrs (A2780) at 37° C. The fluorescence intensity was measured for each well with a Fluorescence plate reader (Fluorskan, Labsystems, 540 nm excitation and 590 nm emission)
(§2) The antiproliferative activity was calculated as percentage of remaining viable cells in treated versus control (untreated cells) conditions. Within an experiment, the result for each experimental condition is the mean of 3 replicate wells. When appropriate, the experiments were repeated to establish full concentration-response curves. When appropriate, IC50-values (concentration of the drug, needed to reduce cell growth to 50% of the control) were computed using probit analysis for graded data (Finney, D. J., Probit Analyses, 2nd Ed. Chapter 10, Graded Responses, Cambridge University Press, Cambridge 1962). Herein the effects of test compounds are expressed as pIC50 (the negative log value of the IC50-value (M)) (see Table 5A).

[2] = system: non-small cell lung cancer cell line H1299; experiment: Alamar Blue cell proliferation assay, H1299; type: cell-based
Description: as §1, §2
(§3) Compounds were also tested according to the above protocol but using other cell lines: colorectal cancer cell line HCT116, non-small cell lung cancer cell line H1299, human prostate cancer cell line DU145.

[3] = system: colorectal cancer cell line HCT116; experiment: Alamar Blue cell proliferation assay, HCT116; type: cell-based; conditions: for IC50: Homo sapiens, HCT-116, HCT116 cells, read-out: HCT116 cell proliferation inhibition pIC50 (converted)
Description: as §1, §2, §3

[4] = system: p53 in A2780 cells; experiment: p53 ELISA (preservation of p53 in A2780 cells); type: cell-based, human; conditions: 16 hours treatment; for minimal effective concentration: Homo sapiens, A2780, 16 h, read-out: p53-elisa LAD (lowest dose giving at least 140% of the value for p53 present in the control)
Description: The capacity of the present compounds to preserve p53 in A2780 cells was measured with the p53 enzyme linked immunosorbent assay. The p53 assay is a “sandwich” enzyme immunoassay employing two polyclonal antibodies. A polyclonal antibody, specific for the p53 protein, has been immobilized onto the surface of the plastic wells. Any p53 present in the sample to be assayed will bind to the capture antibody. The biotinylated detector polyclonal antibody also recognizes p53 protein, and will bind to any p53, which has been retained by the capture antibody. The detector antibody, in turn, is bond by horseradish peroxidase-conjugated streptavidin. The horseradish peroxidase catalyses the conversion of the chromogenic substrate o-phenylene diamine, the intensity of which is proportional to the amount of p53 protein bond to the plate. The colored reaction product is quantified using a spectrophotometer. Quantitation is achieved by the construction of a standard curve using known concentrations of purified recombinant HIS tagged p53 protein (see example C.1.).
A2780 cells (ATCC) were cultivated in RPMI 1640 supplemented with 10% fetal calf serum (FCS), 2 mM L-glutamine and gentamycin at 37° C. in a humidified incubator with 5% CO2.
A2780 cells were seeded at 20.000 cells per well in a 96 well plate, cultured for 24 hours and treated with compound for 16 hours at 37° C. in a humidified incubator. After incubation, the cells were washed once with phosphate-buffered saline and 30 μl, per well, low salt RIPA buffer (20 mM tris, pH7.0, 0.5 mM EDTA, 1% Nonidet P40, 0.5% DOC, 0.05% SDS, 1 mM PMSF, 1 μg/ml aprotinin and 0.5 μ/ml leupeptin) was added. Plates were placed on ice for 30 minutes to complete the lysis. p53 protein was detected in de lysates by using the sandwich ELISA, described below.
High binding polystyrene EIA/RIA 96 well plates (Costar 9018) were coated with the capture antibody pAb1801 (Abcam ab28-100) at a concentration of 1 μg/ml in coating buffer (0.1 M NaHCO3 pH8.2), 50 μl per well. The antibody was allowed to adhere overnight at 4° C. Coated plates were washed once with phosphate-buffered saline (PBS)/0.05% Tween 20 and 300 μl of blocking buffer (PBS, 1% bovine serum albumins (BSA)) was added, for an incubation period of 2 hours at room temperature. Dilutions of purified recombinant HIS tagged p53 protein, ranging from 3-200 ng/ml, were made in blocking buffer and used as standards.
Plates were washed twice with PBS/0.05% Tween 20 and blocking buffer or standards were added at 80 μl/well. To the standards, 20 μl of lysis buffer was added. The samples were added to the other wells at 20 μl lysate/well. After an overnight incubation at 4° C., plates were washed twice with PBS/0.05% Tween 20. Aliquots of 100 μl secondary polyclonal antibody p53(FL-393) (Tebubio, sc-6243) at a concentration of 1 μg/ml in blocking buffer were added to each well and allowed to adhere for 2 hours at room temperature. Plates were washed three times with PBS/0.05% Tween 20. Detection antibody anti-rabbit HRP (sc-2004, Tebubio) at 0.04 μg/ml in PBS/1% BSA was added and incubated for 1 hour at room temperature. Plates were washed three times with PBS/0.05% Tween 20 and 100 μl of substrate buffer was added (substrate buffer was prepared shortly before use by adding 1 tablet of 10 mg o-phenylene diamine (OPD) from Sigma and 125 μl 3% H2O2 to 25 ml OPD buffer: 35 mM citric acid, 66 mM Na2HPO4, pH5.6). After 5 to 10 minutes, colour reaction was stopped by adding 50 μl stop buffer (1 M H2SO4) per well. The absorbance at dual wavelengths of 490/655 nm was measured using a Biorad micro plate reader and the results were then analyzed.
For each experiment, controls (containing no drug) and a blank incubation (containing no cells or drugs) were run in parallel. The blank value was subtracted from all control and sample values. For each sample, the value of p53 (in absorbance units) was expressed as the percentage of the value for p53 present in the control. […]

[5] = system: human prostate cancer cell line DU145; experiment: Alamar Blue cell proliferation assay, DU145; type: cell-based; conditions: Homo sapiens, DU-145, DU145 cells; read-out: DU145 cell proliferation inhibition pIC50 (converted)
Description: as §1, §2, §3

[6] = system: Male NMRI mice; experiment: Ro-4-1284 antagonism in mice; type: in vivo; conditions: Ro-4-1284 antagonism test in mice
Description: The test is a modification of a procedure described by Colpaert et al. (1975).^3 Male NMRI mice (22±3 g) were housed in macrolon observation cages (L×W×H: 11×12×17 cm; n=3 per cage). At the start of the experiments immediately before test compound administration, the initial body temperature of the mice was measured with a precision of 0.1° C. by inserting the thermo-sensitive probe (1.0 mm diameter) of an electric thermometer (Comark) to a constant depth of 3 cm into the esophagus until a stable reading was obtained. The right eye pupil diameter was measured with a graduated microscope and expressed in 1/24 mm units. Fifteen min after test compound administration, the mice were challenged with Ro-4-1284 (10 mg/kg, s.c.). Ro-4-1284 is a reserpine-like vesicular monoamine transport (VMAT-2) inhibitor, which rapidly depletes secretory vesicles.^3,4 Fifteen, 30 and 60 min after challenge, the mice were scored for palpebral opening (0, 1, 2, 3, 4, 5) and locomotor activity (−1, 0, 1, 2, 3). At the 60-min interval, immediately after the scoring of overt behavior, the right eye pupil diameter and the esophageal temperature were measured again. Abnormal phenomena such as intensive sniffing, chewing, rearing, hyperemia, piloerection, salivation, tremors, convulsions and death were noted (the latter phenomena were also noted when occurring before Ro-4-1284 administration). Criteria for drug-induced effects: reversal of ptosis: palpebral opening score >1 at 15, 30 or 60 min (2.7, 0.5 and 0% false positive controls, respectively; n>350); induction of prostration: score −1 for locomotion at 15, 30 or 60 min (never observed in controls); reversal of hypomotility: score >0 for locomotion at 15, 30 and 60 min (2.2, 0.8 and 0% false positive controls, respectively); reversal of miosis: pupil diameter >5 units at 60 min (0.8% false positives); potentiation of hypothermia: temperature decrease (over the 1-h time interval)>9.0° C. (1.4% false positives); reversal of hypothermia: temperature decrease <3.0° C. (1.8% false positives).
According to the standard procedure, R0-4-1284 is injected 15 min following subcutaneous or oral administration and observations start 15 min later. Doses are initially given to 3 animals. When at least 2 out of the 3 animals show activity for at least one of the observations, the compound is considered active.

`Cc1cc(Nc2ccnc3c2CCC3O)ccc1NCCc1c[nH]c2c(CCO)cccc12` (single isomer, unassigned) [Compound 13] was tested, and the “A2780 cell proliferation inhibition pIC50” value [1] was 6.90, the “H1299 cell proliferation inhibition pIC50” value ([2]; H1299 cells) was under 5 and the “HCT116 cell proliferation inhibition pIC50” value ([3]; HCT116 cells) was 5.61. The “p53-elisa LAD (lowest dose giving at least 140% of the value for p53 present in the control)” value [4] was 1.00 µM.
For `COC1CCc2c(Nc3ccc(NCCc4c[nH]c5c(C(C)(C)O)cccc45)cc3)ccnc21` (centres unmarked) [Compound 8], the IC50 [1] was 0.0871 µM, the IC50 [3] was 0.0871 µM and the minimal effective concentration [4] was 0.1 µM.
Work on `C=Cc1ccc2c(CCNc3ccc(Nc4ccnc5c4CCC5O)cc3C)c[nH]c2c1` (centres unmarked) [Compound 14] yielded an IC50 [1] of 0.372 µM, an IC50 ([2]; Homo sapiens, NCI-H1299, H1299 cells, read-out: H1299 cell proliferation inhibition pIC50 (converted)) of 3.98 µM and an IC50 [3] of over 10 µM. The minimal effective concentration [4] was 1 µM and the IC50 [5] was 7.24 µM.
In the case of `OC1CCc2c(Nc3ccc(NCCc4c[nH]c5ccccc45)cc3)ccnc21` (centres unmarked) [drawing 152, reference compound], the “drug induced neurological side effects” value [6] is reported as “yes”.
In the case of `OC1CCc2c(Nc3ccc(NCCc4c[nH]c5ccccc45)cc3)ccnc21` (centres unmarked) [drawing 153, reference compound], the “drug induced neurological side effects” value [6] is reported as “yes”.
For `Cc1cc(Nc2ccncc2)ccc1NCCc1c[nH]c2ccccc12` [reference compound], the “drug induced neurological side effects” value [6] was “yes”.
For `c1ccc2c(CCNc3ccc(Nc4ccncc4)cc3)c[nH]c2c1` [reference compound], the “drug induced neurological side effects” value [6] was “yes”.
`Cc1cccc2c(CCNc3ccc(Nc4ccncc4)cc3)c[nH]c12` [reference compound] was tested, and the “drug induced neurological side effects” value [6] was “yes”.
